In patent US20060257432A1, “Pharmaceutical formulations of xanthogenates and inhibitors of viral nucelic acid replication” (priority 2003, published 2006):

Tests used:
[1] = test system: herpes simplex virus (Type-1, strain ANG); experiment: Plaque formation of herpes simplex virus in Calu-6 cells; type: cell-based; conditions: for number of plaques: Calu-6 cells, 48 h
Description: Human lung carcinoma cells (Calu-6) were infected with 30 plaque-forming units of herpes simplex virus (Type-1, strain ANG) in Linbro plates. Cell culture medium (MEM containing 10% fetal calf serum, 0.85 g/l sodium bicarbonate, and 0.5% carboxymethylcellulose) containing either 0, 5 or 10 μg/ml exo/exo-tricyclo[5,2,1,0^2,6]-9yl-xanthogenate (D609) was added two hours after infection. The cultures were treated with aciclovir at the same time. All samples were processed as quadruplicates. The cells were incubated for 48 h at 37° C. under CO2 gassing (5%). Then the medium was decanted, the cells were fixed with 3% formalin and stained with 0.5% crystal violet. After drying at room temperature, the number of plaques formed was determined.

[2] = test system: HSV-1 (Wal strain); experiment: Experimental skin infection of mice with HSV-1, ointment treatment; type: in vivo, mice (Balb-C strain); conditions: HSV-1-infected Balb-C mice, 5% ointment twice daily from day 4 after infection; for survival: 14 days, placebo: 3 of 10 survived
Description: One part (by weight) D609, one part (by weight) potassium salt of decanoic acid, and four parts (by weight) cholesterol were mixed in a mortar. Subsequently, propyleneglycol (final concentration 10%) and vaseline were added such that the final concentration of D609 was 5%. The same procedure was used to produce ointments containing 5% aciclovir or 5% D609 and 5% aciclovir. A placebo ointment containing neither of the two agents was produced using the analogous procedure.
Ten mice (Balb-C strain) each were shaved on their upper leg and six scratches in the skin were made with a cannula in an area of 5×5 mm. Subsequently, a cotton bud was used to apply 50 μl of a HSV-1 suspension (Wal strain, 10^8 plaque-forming units/ml). The treatment (twice daily) was initiated four days after infection. The symptoms, “widespread lesions”, “hind leg paralysis”, and survival were recorded in the protocol.
The result is shown graphically in FIGS. 2a to 2d. […] Triangles indicate the surviving animals in each case, squares the animals with hind leg paralysis, and diamonds the animals with widespread lesions.

Row | SMILES | number of plaques ([1]; aciclovir 0.16 μM alone, not statistically significant (p=0.4)) | increase of the effect of aciclovir in cell culture ([1]; in the presence of low, antivirally ineffective concentrations of the xanthogenate) | healing of lesions and paralysis [2] | survival [2] | number of plaques ([1]; 5 μg/ml D609 alone, no-D609 control 32.75±11) | number of plaques ([1]; 10 μg/ml D609 alone, no-D609 control 32.75±11) | effect on plaque formation ([1]; D609 alone at 5 or 10 μg/ml)
1 | Nc1nc2c(ncn2COCCO)c(=O)[nH]1 [aciclovir] | 30±11 | increased up to five-fold | almost completely healed | survival rate higher | – | – | –
2 | S=C(S)OC1CC2CC1C1CCCC21 (stereo not drawn) [D609, exo/exo-tricyclo[5,2,1,0^2,6]-9yl-xanthogenate] | – | – | almost completely healed | survival rate higher | 32±3 | 33±6 | no effect
